Peptide text beside a SMILES is read from it.
What was measured:
mTOR = mTOR activity by immunoblotting of S6K1 (T389) and ULK1 (S757) phosphorylation in HEK293T cells; format: cell-based
Protocol: (A) Dose-response analysis of mTOR activity in HEK293T cells treated with glycyl-L-phenylalanine 2-naphththylamide (GPN) in full medium for 1 h. mTOR activity was monitored by inununoblotting analysis of S6K1 (T389) and ULK1 (S757) phosphorylation (phosphorylated S6K (T389) and ULK1 (S757) relative to total S6K and ULK1, respectively). (B) Analysis of mTOR activity (as in A) after GPN washout. HEK293T cells were treated with 100 μM GPN for 1 h followed by 1 h washout in full medium. Data, means±SEM (n=3), **p<0.01, ANOVA. (C) Analysis of mTOR activity (as in A) in HEK293T cells treated with increasing doses of silica in full medium for 1 h. (D) HEK293T cells were treated with lysosomal damaging agents (LLOMe, Leu-Leu-OMe) for 1 h in full medium and status of acidified organelles assessed by quantifying LysoTracker Red DND-99 puncta using automated high-content imaging and analysis (HC). None-treated cells were as control (Ctrl). White masks, algorithm defined cell boundaries (primary objects); yellow masks, computer-identified LysoTracker Red puncta (target objects). Data, means±SEM, n≥3 independent experiments (500 primary objects counted per well; ≥5 wells/sample per each experiment), **p<0.01, ANOVA. (E) Analysis of mTOR activity in primary human macrophages treated with GPN. Human peripheral blood monocyte derived macrophages were treated with 100 μM GPN in full medium or starved in EBSS for 1 h, and mTOR activity measured as in A. None-treated cells were as control (Ctrl). (F) Quantification by HC of overlaps between mTOR and LAMP2 (representative images shown in FIG. S1D) in HeLa cells treated with lysosomal damaging agents for 1 h in full medium. Data, means±SEM, n≥3 independent experiments (500 primary objects counted per well; ≥5 wells/sample per each experiment) **p<0.01, ANOVA. (G) Immunofluorescence confocal microscopy visualization of mTOR localization relative to LAMP2-positive lysosomes. […] (H) Analysis of TFEB nuclear translocation in HeLa cells treated with 100 μM GPN in full medium for 1 h, and the nuclear translocation of TFEB was measured by HC (Nuclei, Hoechst 33342, blue pseudocolor; TFEB red fluorescence, Alexa-568). […] White masks, computer algorithm-defined cell boundaries (primary objects); pink masks, computer-identified nuclear TFEB based on the average intensity of Alexa-568 fluorescence. Data, means±SEM, n≥3 independent experiments (500 primary objects counted per well; ≥5 wells/sample per each experiment), **p<0.01, ANOVA. (I) HeLa cells were treated as indicated in full medium for 1 h, and LC3 puncta were quantified by HC. […] Data, means±SEM, n≥3 independent experiments (500 primary objects counted per well; ≥5 wells/sample per each experiment), **p<0.01, ANOVA. […]

TFEB = TFEB nuclear translocation by high-content microscopy in HeLa cells; format: cell-based; settings: 1 h full medium
Protocol: (A) Dose-response analysis of mTOR activity in HEK293T cells treated with glycyl-L-phenylalanine 2-naphththylamide (GPN) in full medium for 1 h. mTOR activity was monitored by inununoblotting analysis of S6K1 (T389) and ULK1 (S757) phosphorylation (phosphorylated S6K (T389) and ULK1 (S757) relative to total S6K and ULK1, respectively). (B) Analysis of mTOR activity (as in A) after GPN washout. HEK293T cells were treated with 100 μM GPN for 1 h followed by 1 h washout in full medium. Data, means±SEM (n=3), **p<0.01, ANOVA. (C) Analysis of mTOR activity (as in A) in HEK293T cells treated with increasing doses of silica in full medium for 1 h. (D) HEK293T cells were treated with lysosomal damaging agents (LLOMe, Leu-Leu-OMe) for 1 h in full medium and status of acidified organelles assessed by quantifying LysoTracker Red DND-99 puncta using automated high-content imaging and analysis (HC). […] Data, means±SEM, n≥3 independent experiments (500 primary objects counted per well; ≥5 wells/sample per each experiment), **p<0.01, ANOVA. […] Human peripheral blood monocyte derived macrophages were treated with 100 μM GPN in full medium or starved in EBSS for 1 h, and mTOR activity measured as in A. None-treated cells were as control (Ctrl). […] Data, means±SEM, n≥3 independent experiments (500 primary objects counted per well; ≥5 wells/sample per each experiment) **p<0.01, ANOVA. […]

NCC(=O)N[C@@H](Cc1ccccc1)C(=O)Nc1ccc2ccccc2c1 [GPN, glycyl-L-phenylalanine 2-naphththylamide] (HELM PEPTIDE1{G.F.[c1ccc2cc(N[*:1])ccc2c1]}$$$$V2.0)
mTOR activity after washout (mTOR; 100 μM GPN for 1 h followed by 1 h washout in full medium): reversed
mTOR activity (phosphorylation of its substrates S6K1 and ULK1) (mTOR; HEK293T cells, full medium, 1 h): diminished mTOR activity
mTOR activity (S6K1 phosphorylation) in cells expressing constitutively active RagBQ99L (mTOR; HEK293T stably expressing RagBQ99L, 100 μM GPN 1 h): not the case
TFEB nuclear translocation (TFEB): translocated to the nucleus from the cytoplasm

Reference: patent publication US20210069295A1, “GALECTINS CONTROL MTOR IN RESPONSE TO ENDOMEMBRANE DAMAGE AND PROVIDE A MECHANISM AND TARGET FOR THE TREATMENT OF AUTOPHAGY-RELATED DISEASES” (STC. UNM, priority 2017, published 2021)
